Reference: patent US5369120A, “Pharmaceutical composition of 7-((substituted)amino-8-((substituted)carbonyl)-(methylamino)-1-oxasp iro(4,5)decanes and L-dopa” (Warner-Lambert Company, priority 1993, dated 1994)

Tested on: rats rendered Parkinsonian by injection of reserpine
Assay: locomotor activity and rigidity in reserpine-treated Parkinsonian rats
Format: in vivo, rat
Conditions: reserpine (4 mg/kg) rats; L-DOPA 80 mg/kg intraperitoneal, subthreshold dose

## N[C@@H](Cc1ccc(O)c(O)c1)C(=O)O [L-DOPA, 3-(3,4-dihydroxyphenyl)L-alanine]
  Locomotor scores: very low locomotor scores
